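Five concentrations, 48 hours, 96-well plates. GI50 marks 50% less growth.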 Calls of active or inactive are those of the source. No stated cut-off is given here; in the data, active = GI50 up to about 1.1 µM and inactive = higher.
What was measured:
Assay in all cases: NCI tumour cell line growth inhibition, 48 h
[1] = system: LOX IMVI
[2] = system: OVCAR-4
[3] = system: DU-145
[4] = system: CAKI-1
[5] = system: RXF 393
[6] = system: 786-0
[7] = system: OVCAR-5
[8] = system: MDA-N
[9] = system: OVCAR-3
[10] = system: SK-OV-3
[11] = system: COLO 205
[12] = system: K562
[13] = system: SF-295
[14] = system: OVCAR-8
[15] = system: NCI-H23
[16] = system: HOP-62
[17] = system: BT-549
[18] = system: HL-60
[19] = system: SNB-19
[20] = system: Hs-578T
[21] = system: A498
[22] = system: UO-31
[23] = system: A549
[24] = system: RPMI-8226
[25] = system: SF-539
[26] = system: NCI-H522
[27] = system: UACC-62
[28] = system: SW-620
[29] = system: ACHN
[30] = system: MCF7
[31] = system: HCT-15
[32] = system: MOLT-4
[33] = system: SK-MEL-5
[34] = system: SF-268
[35] = system: EKVX
[36] = system: SN12C
[37] = system: SR
[38] = system: CCRF-CEM
[39] = system: Malme-3M
[40] = system: HCC 2998
[41] = system: NCI-H460
[42] = system: T47D
[43] = system: HOP-92
[44] = system: TK-10
[45] = system: SK-MEL-28
[46] = system: SK-MEL-2
[47] = system: IGROV-1
[48] = system: KM12
[49] = system: PC-3
[50] = system: U-251
[51] = system: UACC-257
[52] = system: SNB-75
[53] = system: NCI/ADR-RES
[54] = system: M14
[55] = system: MDA-MB-435
[56] = system: MDA-MB-231
[57] = system: HT-29
[58] = system: HCT-116

`COc1cc2oc3c(c(=O)c2c(O)c1/C=C/C(C)C)CCC(C)(C)Oc1cc(O)ccc1-3` was tested, and the GI50 [1] was 9.14 µM (inactive), the GI50 [2] was 14.3 µM (inactive) and the GI50 [3] was 33.8 µM (inactive). The GI50 [4] was 16.5 µM (inactive), the GI50 [5] was 11.5 µM (inactive) and the GI50 [6] was 14.9 µM (inactive). For the same molecule, the GI50 [7] was 16.6 µM (inactive), the GI50 [8] was 13 µM (inactive) and the GI50 [9] was 15.6 µM (inactive). For the same molecule, the GI50 [10] was 16.7 µM (inactive), the GI50 [11] was 16.4 µM (inactive) and the GI50 [12] was 4.32 µM (inactive). The GI50 [13] was 13.3 µM (inactive), the GI50 [14] was 15.5 µM (inactive) and the GI50 [15] was 16 µM (inactive). For the same molecule, the GI50 [16] was 15.4 µM (inactive), the GI50 [17] was 17.1 µM (inactive) and the GI50 [18] was 13.1 µM (inactive). The GI50 [19] was 16.1 µM (inactive), the GI50 [20] was 10.4 µM (inactive) and the GI50 [21] was 19.1 µM (inactive). For the same molecule, the GI50 [22] was 13.1 µM (inactive), the GI50 [23] was 12 µM (inactive) and the GI50 [24] was 20 µM (inactive). For the same molecule, the GI50 [25] was 13.1 µM (inactive), the GI50 [26] was 18.1 µM (inactive) and the GI50 [27] was 15.6 µM (inactive). The GI50 [28] was 21.4 µM (inactive), the GI50 [29] was 14.1 µM (inactive) and the GI50 [30] was 13.3 µM (inactive). For the same molecule, the GI50 [31] was 10.2 µM, the GI50 [32] was 13 µM (inactive) and the GI50 [33] was 18.7 µM (inactive). The GI50 [34] was 15.6 µM (inactive), the GI50 [35] was 18.1 µM (inactive) and the GI50 [36] was 13.6 µM (inactive). For the same molecule, the GI50 [37] was 4.78 µM (inactive), the GI50 [38] was 17.3 µM (inactive) and the GI50 [39] was 20 µM (inactive). For the same molecule, the GI50 [40] was 14.4 µM (inactive), the GI50 [41] was 8.41 µM (inactive) and the GI50 [42] was 33.9 µM (inactive). For the same molecule, the GI50 [43] was 17.6 µM (inactive), the GI50 [44] was 13.8 µM (inactive) and the GI50 [45] was 14.8 µM (inactive). The GI50 [46] was 16.6 µM (inactive), the GI50 [47] was 17.7 µM (inactive) and the GI50 [48] was 7.41 µM (inactive). For the same molecule, the GI50 [49] was 15.2 µM (inactive), the GI50 [50] was 20.5 µM (inactive) and the GI50 [51] was 14.3 µM (inactive). For the same molecule, the GI50 [52] was 16 µM (inactive), the GI50 [53] was 15.4 µM (inactive) and the GI50 [54] was 10.8 µM (inactive). For the same molecule, the GI50 [55] was 16.1 µM (inactive), the GI50 [56] was 16.6 µM (inactive) and the GI50 [57] was 7.13 µM (inactive). For the same molecule, the GI50 [58] was 18.2 µM (inactive).

Source: ChEMBL document CHEMBL1201862, “PubChem BioAssay data set” (2004)
